# Assay results from patent US20260116868A1 (Arcus Biosciences, Inc., priority 2023, published 2026).
# Target: T1, Cbl-b (Homo sapiens, UniProt Q13191)
# T1 construct: biotin (biotinylated protein)
# Assay: Cbl-b probe displacement HTRF binding assay
# Settings: 0.4 nM Cbl-b, 150 nM BODIPY probe
# Method in brief: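 Binding IC50 from four-parameter fit of HTRF signal loss, normalised to DMSO (0%) and no-protein (100%) wells. Biotinylated Cbl-b 0.4 nM was preincubated 60 min with compound (20-point 1:2 dilution) before 15 min with 150 nM BODIPY probe; Tb-streptavidin detection.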
# T1 sequence (Q13191 whole entry, species assumed): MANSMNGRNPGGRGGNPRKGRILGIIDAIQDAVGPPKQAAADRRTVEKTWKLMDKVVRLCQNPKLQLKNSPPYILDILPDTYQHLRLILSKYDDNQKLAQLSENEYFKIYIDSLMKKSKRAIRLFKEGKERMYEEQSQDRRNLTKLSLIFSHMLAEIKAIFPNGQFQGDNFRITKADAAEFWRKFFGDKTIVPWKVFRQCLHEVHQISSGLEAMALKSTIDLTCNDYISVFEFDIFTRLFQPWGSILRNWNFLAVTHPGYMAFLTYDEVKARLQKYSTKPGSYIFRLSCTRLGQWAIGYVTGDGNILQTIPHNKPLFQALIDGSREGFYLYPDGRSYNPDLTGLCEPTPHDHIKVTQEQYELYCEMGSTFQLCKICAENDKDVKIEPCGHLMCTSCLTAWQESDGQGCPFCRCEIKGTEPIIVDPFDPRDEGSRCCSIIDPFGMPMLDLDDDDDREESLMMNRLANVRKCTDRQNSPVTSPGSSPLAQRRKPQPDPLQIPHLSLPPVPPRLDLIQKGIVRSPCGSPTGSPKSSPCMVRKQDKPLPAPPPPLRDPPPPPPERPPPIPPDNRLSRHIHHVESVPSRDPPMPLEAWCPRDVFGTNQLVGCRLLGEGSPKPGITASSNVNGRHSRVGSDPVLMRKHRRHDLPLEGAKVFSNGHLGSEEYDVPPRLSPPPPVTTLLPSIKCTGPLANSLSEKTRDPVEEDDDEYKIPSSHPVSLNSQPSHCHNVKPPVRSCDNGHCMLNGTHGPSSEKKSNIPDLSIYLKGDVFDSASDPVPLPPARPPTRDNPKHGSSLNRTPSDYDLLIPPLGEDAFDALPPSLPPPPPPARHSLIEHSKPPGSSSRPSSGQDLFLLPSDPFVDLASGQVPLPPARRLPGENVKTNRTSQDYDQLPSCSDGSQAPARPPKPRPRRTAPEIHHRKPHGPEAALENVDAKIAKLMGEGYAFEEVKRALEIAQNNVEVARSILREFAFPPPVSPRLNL
row,SMILES,IC50
1,CCOc1cc(-c2ccc(F)cc2C(=O)N2CC(F)(F)C2)cc(NC(=O)c2cc(CNC[C@H](C)OC)cn(C3CC3)c2=O)n1 [Example 373],< 100 nM
2,COCCNCc1cc(C(=O)Nc2cc(-c3ccc(C#N)cc3C(=O)N3CC(F)(F)C3)cc(C3CC3)n2)c(=O)n(C2CC2)c1 [Example 374],< 100 nM
3,N#Cc1ccc(-c2cc(NC(=O)c3cc(CNCCCF)cn(C4CC4)c3=O)nc(C3CC3)c2)c(C(=O)N2CC(F)(F)C2)c1 [Example 375],< 100 nM
4,C[C@H](NCc1cc(C(=O)Nc2cc(-c3ccc(C#N)cc3C(=O)N3CC(F)(F)C3)cc(C3CC3)n2)c(=O)n(C2CC2)c1)C1CCCO1 (some centres unmarked) [Example 376],< 100 nM
5,CC(C)Oc1cc(-c2ccc(OC(F)F)cc2C(=O)N2CC(F)C2)cc(NC(=O)c2cc(CNC[C@@H]3COCCO3)cn(C)c2=O)n1 [Example 377],< 100 nM
6,O=C(Nc1cc(-c2ccc(Cl)cc2C(=O)N2CC(F)(F)C2)cc(C2CC2)n1)c1cc(CNC[C@@H]2CCCO2)cn(C2CC2)c1=O [Example 378],< 100 nM
7,O=C(Nc1cc(-c2ccc(OC(F)F)cc2C(=O)N2CC(F)(F)C2)cc(C2CC2)n1)c1cc(CNC[C@@H]2COCCO2)cn(C2CC2)c1=O [Example 379],< 100 nM
8,CO[C@@H](C)CNCc1cc(C(=O)Nc2cc(-c3ccc(F)cc3C(=O)N3CC(F)(F)C3)cc(NC(C)C)n2)c(=O)n(C)c1 [Example 380],< 100 nM
9,N#Cc1ccc(-c2cc(NC(=O)c3cc(CNCCC(F)F)cn(C4CC4)c3=O)nc(C3CC3)c2)c(C(=O)N2CC(F)(F)C2)c1 [Example 381],< 100 nM
10,COCCNCc1cc(C(=O)Nc2cc(-c3ccc(Cl)cc3C(=O)N3CC(F)(F)C3)cc(C3CC3)n2)c(=O)n(C2CC2)c1 [Example 382],< 100 nM
11,N#Cc1ccc(-c2cc(NC(=O)c3cc(CNCC4CC4)cn(C4CC4)c3=O)nc(C3CC3)c2)c(C(=O)N2CC(F)(F)C2)c1 [Example 383],< 100 nM
12,C[C@@H]1C[C@H]1CNCc1cc(C(=O)Nc2cc(-c3ccc(Cl)cc3C(=O)N3CC(F)(F)C3)cc(C3CC3)n2)c(=O)n(C2CC2)c1 [Example 384],< 100 nM

# Further lines, results first:
row,IC50,SMILES
1,< 100 nM,CC1(CNCc2cc(C(=O)Nc3cc(-c4ccc(C#N)cc4C(=O)N4CC(F)(F)C4)cc(C4CC4)n3)c(=O)n(C3CC3)c2)CC1 [Example 385]
2,< 100 nM,CC(C)Oc1cc(-c2ccc(C#N)cc2C(=O)N2CC(F)(F)C2)cc(NC(=O)c2cc(CNC[C@@H]3COCCO3)cn(C)c2=O)n1 [Example 386]
3,< 100 nM,CO[C@@H](C)CNCc1cc(C(=O)Nc2cc(-c3ccc(F)cc3C(=O)N3CC(F)(F)C3)cc(OC(C)C)n2)c(=O)n(C)c1 [Example 387]
4,< 100 nM,O=C(Nc1cc(-c2ccc(OC(F)F)cc2C(=O)N2CC(F)(F)C2)cc(C2CC2)n1)c1cc(CNC[C@@H]2CCCCO2)cn(C2CC2)c1=O [Example 388]
5,< 100 nM,CC(C)Oc1cc(-c2ccc(C#N)cc2C(=O)N2CC(F)(F)C2)cc(NC(=O)c2cc(CNC[C@@H]3CCCO3)cn(C)c2=O)n1 [Example 389]
6,< 100 nM,CC1(NCc2cc(C(=O)Nc3cc(-c4ccc(C#N)cc4C(=O)N4CC(F)(F)C4)cc(C4CC4)n3)c(=O)n(C3CC3)c2)CCC1 [Example 390]
7,< 100 nM,N#Cc1ccc(-c2cc(NC(=O)c3cc(CNCCC(F)(F)F)cn(C4CC4)c3=O)nc(C3CC3)c2)c(C(=O)N2CC(F)(F)C2)c1 [Example 391]
8,< 100 nM,CC(C)Oc1cc(-c2ccc(C#N)cc2C(=O)N2CC(F)(F)C2)cc(NC(=O)c2cc(CNC[C@@H]3CCCCO3)cn(C3CC3)c2=O)n1 [Example 392]
9,< 100 nM,CO[C@@H](C)CNCc1cc(C(=O)Nc2cc(-c3ccc(C#N)cc3C(=O)N3CC(F)(F)C3)cc(C3CC3)c2)c(=O)n(C2CC2)c1 [Example 393]
10,< 100 nM,CO[C@@H](C)CNCc1cc(C(=O)Nc2cc(-c3ccc(C#N)cc3C(=O)N3CC(C)(F)C3)cc(C3CC3)n2)c(=O)n(C2CC2)c1 [Example 394]
11,< 100 nM,CC(C)[C@H](C)NCc1cc(C(=O)Nc2cc(-c3ccc(Cl)cc3C(=O)N3CC(F)(F)C3)cc(C3CC3)n2)c(=O)n(C2CC2)c1 [Example 395]
